# Test results: patent US20240138411A1, “METHOD OF […] OF SUGARCANE” (CORTEVA AGRISCIENCE LLC, priority 2021, published 2024)
# Test system: sugarcane
# Test: Sugarcane flowering inhibition field trials, floral induction rated on UFSCar scale
# Format: in vivo
# Settings: 475 g ai/ha
# Experimental: In order to explore the activity of florpyrauxifen as flowering inhibitor in sugarcane, field studies were carried out. Florpyrauxifen-benzyl was tested at rates from 2 to 20 grams active ingredient per hectare (g ai/ha) and compared to Ethrel® 720 (Bayer), the standard treatment. The flowering inhibition effect was assessed by checking the floral induction in sugarcane through the percentage scale recommended by UFSCar (Federal University of Sao Carlos, Sao Paulo, Brazil).
# Four trials were carried out in sugarcane where florpyrauxifen-benzyl (Rinskor®), applied at a rate of 2 to 20 g ai/ha, was compared to ethephon (Ethrel® 720) applied at a rate of 475 g ai/ha. Control plots of untreated sugarcane were also evaluated. Rinskor® and Ethrel® 720 were diluted in water and a single application for each study (backpack sprayer) was performed delivering 50 L of spray solution per ha at the reproductive stage of sugarcane and at a maximum 150 days before harvest. The activity of florpyrauxifen-benzyl as a flowering inhibitor was measured via assessments (Scale of flowering inhibition—see chart 1) performed at 0, 14, 30, 45, 60, 75, 90, 120, 150 days after application, or up to harvest time. The assessments were measured in sugarcane stems, rating the flowering induction according to the UFSCar scale shown below. Significance of treatment effect was evaluated with F-approximate test (α=0.1) and least square means from different treatments were compared with Tukey's test.
smiles,measurement,setting,value
"O=P(O)(O)CCCl [ETHREL720, 2-chloroethylphosphonic acid]",% Referring to Scale,"Table 1, 75 DAA",12.4%
same,Frequency 1/1 (0%),"Table 1, 75 DAA",17.5%
same,Frequency 2/1 (15%),"Table 1, 75 DAA",82.5%
same,Frequency 3/1 (30%),"Table 1, 75 DAA",0.0%
same,Frequency 4/1 (50%),"Table 1, 75 DAA",0.0%
same,Frequency 4/2 (80%),"Table 1, 75 DAA",0.0%
same,Frequency 4/3 (90%),"Table 1, 75 DAA",0.0%
same,Frequency 4/4 (100%),"Table 1, 75 DAA",0.0%
same,% Referring to Scale,"Table 1, 90 DAA",13.1%
same,Frequency 1/1 (0%),"Table 1, 90 DAA",20.0%
same,Frequency 2/1 (15%),"Table 1, 90 DAA",72.5%
same,Frequency 3/1 (30%),"Table 1, 90 DAA",7.5%
same,Frequency 4/1 (50%),"Table 1, 90 DAA",0.0%
same,Frequency 4/2 (80%),"Table 1, 90 DAA",0.0%
same,Frequency 4/3 (90%),"Table 1, 90 DAA",0.0%
same,Frequency 4/4 (100%),"Table 1, 90 DAA",0.0%
same,% Referring to Scale,"Table 1, 120 DAA",18.1%
same,Frequency 1/1 (0%),"Table 1, 120 DAA",0.0%
same,Frequency 2/1 (15%),"Table 1, 120 DAA",87.5%
same,Frequency 3/1 (30%),"Table 1, 120 DAA",10.0%
same,Frequency 4/1 (50%),"Table 1, 120 DAA",0.0%
same,Frequency 4/2 (80%),"Table 1, 120 DAA",2.5%
same,Frequency 4/3 (90%),"Table 1, 120 DAA",0.0%
same,Frequency 4/4 (100%),"Table 1, 120 DAA",0.0%
same,% Referring to Scale,"Table 2, 75 DAA",0.8%
same,Frequency 1/1 (0%),"Table 2, 75 DAA",95.0%
same,Frequency 2/1 (15%),"Table 2, 75 DAA",5.0%
same,Frequency 3/1 (30%),"Table 2, 75 DAA",0.0%
same,Frequency 4/1 (50%),"Table 2, 75 DAA",0.0%
same,Frequency 4/2 (80%),"Table 2, 75 DAA",0.0%
same,Frequency 4/3 (90%),"Table 2, 75 DAA",0.0%
same,Frequency 4/4 (100%),"Table 2, 75 DAA",0.0%
same,% Referring to Scale,"Table 2, 90 DAA",51.8%
same,Frequency 1/1 (0%),"Table 2, 90 DAA",0.0%
same,Frequency 2/1 (15%),"Table 2, 90 DAA",0.0%
same,Frequency 3/1 (30%),"Table 2, 90 DAA",25.0%
same,Frequency 4/1 (50%),"Table 2, 90 DAA",52.5%
same,Frequency 4/2 (80%),"Table 2, 90 DAA",22.5%
same,Frequency 4/3 (90%),"Table 2, 90 DAA",0.0%
same,Frequency 4/4 (100%),"Table 2, 90 DAA",0.0%
same,% Referring to Scale,"Table 2, 120 DAA",98.0%
same,Frequency 1/1 (0%),"Table 2, 120 DAA",0.0%
same,Frequency 2/1 (15%),"Table 2, 120 DAA",0.0%
same,Frequency 3/1 (30%),"Table 2, 120 DAA",0.0%
same,Frequency 4/1 (50%),"Table 2, 120 DAA",0.0%
same,Frequency 4/2 (80%),"Table 2, 120 DAA",2.5%
same,Frequency 4/3 (90%),"Table 2, 120 DAA",15.0%
same,Frequency 4/4 (100%),"Table 2, 120 DAA",82.5%
same,% Referring to Scale,"Table 3, 90 DAA",0.0%
same,Frequency 1/1 (0%),"Table 3, 90 DAA",100.0%
same,Frequency 2/1 (15%),"Table 3, 90 DAA",0.0%
same,Frequency 3/1 (30%),"Table 3, 90 DAA",0.0%
same,Frequency 4/1 (50%),"Table 3, 90 DAA",0.0%
same,Frequency 4/2 (80%),"Table 3, 90 DAA",0.0%
same,Frequency 4/3 (90%),"Table 3, 90 DAA",0.0%
same,Frequency 4/4 (100%),"Table 3, 90 DAA",0.0%
same,% Referring to Scale,"Table 3, 120 DAA",1.5%
same,Frequency 1/1 (0%),"Table 3, 120 DAA",90.0%
same,Frequency 2/1 (15%),"Table 3, 120 DAA",10.0%
same,Frequency 3/1 (30%),"Table 3, 120 DAA",0.0%
same,Frequency 4/1 (50%),"Table 3, 120 DAA",0.0%
same,Frequency 4/2 (80%),"Table 3, 120 DAA",0.0%
same,Frequency 4/3 (90%),"Table 3, 120 DAA",0.0%
same,Frequency 4/4 (100%),"Table 3, 120 DAA",0.0%
same,% Referring to Scale,"Table 3, 150 DAA",0.0%
same,Frequency 1/1 (0%),"Table 3, 150 DAA",100.0%
same,Frequency 2/1 (15%),"Table 3, 150 DAA",0.0%
same,Frequency 3/1 (30%),"Table 3, 150 DAA",0.0%
same,Frequency 4/1 (50%),"Table 3, 150 DAA",0.0%
same,Frequency 4/2 (80%),"Table 3, 150 DAA",0.0%
same,Frequency 4/3 (90%),"Table 3, 150 DAA",0.0%
same,Frequency 4/4 (100%),"Table 3, 150 DAA",0.0%
same,% Referring to Scale,"Table 4, 90 DAA",4.9%
same,Frequency 1/1 (0%),"Table 4, 90 DAA",67.5%
same,Frequency 2/1 (15%),"Table 4, 90 DAA",32.5%
same,Frequency 3/1 (30%),"Table 4, 90 DAA",0.0%
same,Frequency 4/1 (50%),"Table 4, 90 DAA",0.0%
same,Frequency 4/2 (80%),"Table 4, 90 DAA",0.0%
same,Frequency 4/3 (90%),"Table 4, 90 DAA",0.0%
same,Frequency 4/4 (100%),"Table 4, 90 DAA",0.0%
